Experimental data: US20240247031A1, “COMPOSITION FOR TREATING CANCER CONTAINING TELOMERASE-TARGETING GNRH ANTAGONIST-DERIVED PEPTIDE HS1002” (Research & Business Foundation Sungkyunkwan University, priority 2023, published 2024)

Columns and labels:
LNCaP tumors = experiment: LNCaP xenograft model, tumor volume, tumor weight and body weight (FIG. 17); assay type: in vivo; conditions: LNCaP xenograft BALB/c nude mice, 1 mg/kg/day s.c., 13 days
Experimental: All mice were purchased from Central Lab Animal Inc. ([…]). They were raised in a 12 h environmental light/dark cycle with controlled temperature (22±2° C.) conditions. The experimental protocol was approved by the Sungkyunkwan University Institutional Animal Care and Use Committee (SKKUIACUC2021-06-27-1, SKKUIACUC2023-01-07-1). For the establishment of tumors, LNCaP (1×10^7), MC38 (2×10^5), and 4T1 (1×10^6) suspended in serum-free media containing 50% Matrigel was subcutaneously administered in the right flank of mice, respectively. The tumor volumes (V) were calculated using a caliper and the standard equation: V (mm^3)=0.52 (ab^2) (a=length, b=width). Once the tumor reached 100-200 mm^3, the mice were randomly divided into different groups and subcutaneously injected with a vehicle or each peptide every day.
To investigate the anticancer effect of HS1002, the present inventors observed the volume of cancer cells after transplanting the cancer cells into experimental animals. Specifically, mice (4-week-old male BALB/c nude mice; Central Lab. Animal Inc., Seoul, Korea) were prepared, and tumor cells (1×10^7 LNCaP cells) suspended in 1 mL of a serum-free medium containing 50% Matrigel were percutaneously injected into the upper flank of each nude mouse. When the tumor cell volume reached about 200 mm^3, the mice were randomly assigned to a vehicle control group, a leuprolide acetate-treated group, and test groups (GV1001-treated group and HS1002-treated group), respectively. Leuprolide acetate (0.1 mg/kg/day) and GV1001 and HS1002 (1 mg/kg/day) were injected subcutaneously for 13 days.

[1] = tested on: prostate cancer cell line (LNCaP); experiment: MTT cytotoxicity comparison of peptides at the same concentration (FIG. 6); assay type: cell-based, human; conditions: 300 μM, 48 h, 1% FBS, among GV1001, GnRH, HS1001, HS1002
Experimental: The prostate cancer cell line (LNCaP), in which the reactivity of HS1002 to hTERT had been best, were used to investigate the cytotoxic effects of GV1001, GnRH, HS1001, and HS1002 under conditions of 1,500 cells/well, 1% FBS, and 48-hour treatment. The prostate cancer cells were seeded at 1.5×10^3 cells per well in a 96-well plate, and then incubated in an incubator for one day. Thereafter, the cells were treated with HS1001, HS1002, GV1001, and GnRH diluted to (300, 200, 100, and 50 μM) in fresh media. After 48-h incubation, an MTT reagent (3-(4,5-dimethylthiazol-2-yl)-2,5-diphenyltetrazolium bromide, Sigma-Aldrich, M6494) was added, and subsequently the plate was shielded from light and kept in an incubator for 3 h. Thereafter, the MTT solution was discarded, and 100 μL of dimethyl sulfoxide (DMSO, 99.9%, HPLC grade, DAEJUNG CHEMICALS & METALS, 3047-2304) was added to each well, and subsequently the plate was shielded from light and then left at room temperature for 20 min. After that, the absorbance was measured at 540 nm using a microplate reader.

HEK293-GnRHR cells = target: T1, HEK293-GnRHR cells (Homo sapiens, UniProt P30968); experiment: Intracellular calcium flux assay; assay type: cell-based
T1 construct: GFP; expressed in transfected cells
T1 sequence (P30968 1-328): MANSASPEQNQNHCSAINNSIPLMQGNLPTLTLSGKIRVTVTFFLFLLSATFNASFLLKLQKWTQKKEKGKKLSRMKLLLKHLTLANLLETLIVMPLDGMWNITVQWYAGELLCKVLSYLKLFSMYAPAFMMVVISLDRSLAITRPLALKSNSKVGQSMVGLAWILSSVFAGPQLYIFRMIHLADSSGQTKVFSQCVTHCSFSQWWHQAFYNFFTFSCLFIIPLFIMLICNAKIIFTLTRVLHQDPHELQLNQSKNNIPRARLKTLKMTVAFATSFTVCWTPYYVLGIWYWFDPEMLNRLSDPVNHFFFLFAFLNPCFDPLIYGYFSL
Experimental: Human embryonic kidney cell line (HEK293), and mouse cancer cell lines (MC38, 4T1) were purchased from the American Type Culture Collection (Manassas, VA, USA). All cell lines were grown in Dulbecco's Modified Essential Medium (DMEM) or Roswell Park Memorial Institute (RPMI) 1640 supplemented with 10% FBS, 100 U/mL penicillin, and 100 μg/mL streptomycin (WelGENE, Daegu, South Korea) in a humidified atmosphere of 5% CO2 at 37° C. To obtain GnRHR-overexpressing HEK293 (HEK293-GnRHR) cells, transfection of the pCMV-AC-GFP-GnRHR vector (HEK293-GnRHR) was performed using Lipofectamine™ 3000 according to the manufacturer's instructions (Cat. 100022052, Thermo Fisher Scientific, Waltham, MA, USA). Colonies of geneticin-resistant cells were selected by adding G418 (800 μg/mL, Sigma) to the culture medium. The HEK293-pCMV-AC-GFP vector (HEK293-Vector) cells were used as a mock-transfection group.
Intracellular calcium mobilization was measured using the Calcium Flux Assay Kit (Cat. ab233472, abcam) in response to different concentrations of each peptide. The percentage increase was calculated relative to basal fluorescence intensity. The experiment was performed in triplicate.

[2] = tested on: BAX, C-PARP, Bcl-2 in LNCaP; experiment: Western blot of proteins involved in apoptosis (FIG. 9); assay type: cell-based, human; conditions: different concentrations, 48 h
Experimental: The prostate cancer cell line (LNCaP) was seeded into six-well plates and then incubated in an incubator for one day. The peptides were diluted in fresh media and then used to treat the cells. After 48 h, the media were removed, the plates were washed twice with DPBS, and 1 mL of trypsin was placed in each well to separate the cells, and 5 mL of media were added to each well to dilute the trypsin, followed by centrifugation at 1000 rpm for 5 min, thereby preparing the cells. Thereafter, proteins were extracted using a Pro-prep protein extraction kit, separated by electrophoresis, and blotted onto a membrane. The membrane was blocked by a Blotting-Grade Blocker at room temperature for 1 hour, and then primary antibodies (1000:1) were added, followed by incubation at 4° C. for one day. Thereafter, the membrane was repeatedly washed with 1×TBST (Tris 25 g, NaCl 120 g in D.W.+[…] 0.1%) every 10 min for 1 h. Then, secondary antibodies (10000:1) were added, followed by incubation at room temperature for 1 h, and then the membrane was repeatedly washed with 1×TBST every 10 min for 1 h. After incubation with […] substrates for 5 min, desired protein bands were identified using a Chemi-doc system.

SMILES: CCNC(=O)[C@@H]1CCCN1C(=O)[C@@H](NC(=O)[C@H](Cc1ccccc1)NC(=O)[C@H](CCCNC(=N)N)NC(=O)[C@H](CC(C)C)NC(=O)[C@H](CCCNC(=N)N)NC(=O)[C@H](Cc1ccc(O)cc1)NC(=O)[C@H](CO)NC(=O)[C@H](Cc1c[nH]c2ccccc12)NC(=O)[C@H](Cc1c[nH]cn1)NC(=O)[C@@H]1CCC(=O)N1)[C@@H](C)CC [HS1002]
- other toxicity (LNCaP tumors): no other toxicity
- reduction of tumor volume (LNCaP tumors): about 50%
- reduction of tumor weight (LNCaP tumors): about 50%
- cytotoxicity to prostate cancer cells [1]: cytotoxicity to prostate cancer cells was highest
- calcium flux (HEK293-GnRHR cells; 100 nM): increased calcium flux in HEK293-GnRHR cells
- calcium flux (HEK293-GnRHR cells; 1 and 10 nM): increased calcium flux
- expression level of BAX [2]: increased
- expression level of Bcl-2 [2]: decreased
- expression level of C-PARP [2]: increased
